Read-outs that look alike come from different tables or passages of the source.
Tests used:
[1] = system: farnesyl pyrophosphate synthase in daffodil chromoplasts; test: inhibition of farnesyl pyrophosphate synthase in daffodil chromoplasts (14C-isopentenyl pyrophosphate incorporation); format: biochemical, Narcissus pseudonarcissus
Procedure: The IC50 value may be determined as follows. Daffodil chromoplasts are diluted to a volume of 500 microliters in a buffer containing 0.5M sucrose, 3 mM MgCl2, 1 mM ethylenediaminetetraacetic acid, 20 mM N-tris[hydroxymethyl]methyl-2-aminoethanesulfonic acid, […] N-[2-hydroxyethyl]-piperazine-N'-[2-ethanesulfonic acid], 5 mM L-cysteine, 10 mM sodium fluoride, and 0.1% bovine serum albumin at pH 7.7. The inhibitor to be tested may be dissolved in water other suitable solvent and then added to the reaction mixture. The assay is started by the addition of ^14 C-labeled isopentenyl pyrophosphate (52 Ci/mol) to give a final concentration in the assay of about 3 micromolar. The mixture is incubated at 30° C. with gentle agitation for a period of about 30 min. The reaction may be stopped by the addition of 0.5 mL of saturated NaCl and 2 mL of n-butanol saturated with water. After thorough mixing, the turbid suspensions are centrifuged briefly to separate the layers, and 1 mL of the bright yellow upper butanol layer is added to 10 mL of a suitable scintillation fluid which gives a single phase. The butanol soluble radioactivity is then measured in a scintillation counter.
In addition, the problem of variable quenching differences among different experiments can be essentially eliminated by determining the incorporation of radioactivity relative to controls. Each set of experiments requires two control tubes identical to the test samples except that they contain no inhibitor. One of these is quenched immediately (TO sample) and one is quenched at the end of the normal incubation period (T100 sample).
For each concentration of inhibitor examined the % residual activity is determined from the formula [formula]
Tightly closed daffodil flowers (Narcissus pseudonarcissus) were allowed to open at room temperature. […] Coronae were placed in twice their weight of isolation buffer consisting of 67 mM potassium phosphate, 0.74M sucrose, 5 mM MgCl2, and 0.2% polyvinyl-pyrrolidone at pH 7.6 and were disrupted by 30 seconds of homogenization at high speed in a Waring-type blender. The mixture was filtered through several layers of cheesecloth and 2 layers of 100 micron nylon mesh, and the resulting filtrate was centrifuged at 1000×g for 10 minutes. The pellet was discarded and supernatant was centrifuged at 22,000×g for 20 minutes. […] This solution was centrifuged at 22,000×g for 20 minutes to give orange pellets which were suspended in a buffer of 100 mM tris(hydroxymethyl)aminomethane at pH 7.6 containing 5mM MgCl2 and 2 mM dithiothreitol (1 ml per 10 coronae). This solution was frozen in liquid nitrogen and then stored at -80° C.
Thawed daffodil chromoplasts (100-150 microliters) were diluted to a final volume of 500 microliters in a buffer containing 0.5M sucrose, 3 mM MgCl2, 1 mM ethylenediaminetetraacetic acid, 10 mM N-[2-hydroxyethyl]piperazine-N^1 -[2-ethanesulfonic acid], 5 mM L-cysteine, 10 mM sodium fluoride, and 0.1% bovine serum albumin at pH 7.7. The inhibitor to be tested was dissolved in water or other suitable solvent and was added to the reaction mixture. The assay was started by the addition of ^14 C-labeled isopentenyl pyrophosphate (52 Ci/mol) to give a final concentration in the assay of about 3 micromolar. The mixture was incubated at 30° C. with gentle agitation for a period of about 30 minutes. The reaction was stopped by the addition of 0.5 mL of saturated NaCl and 2 mL of n-butanol saturated with water. After thorough mixing, the turbid suspensions were centrifuged briefly to separate the layers, and 1 mL of the bright yellow upper butanol layer was added to 10 mL of a suitable scintillation fluid which gave a single phase. The butanol soluble radioactivity was then measured in a scintillation counter. Each set of experiments required two control tubes identical to the test samples except that they contain no inhibitor.

[2] = system: wild oat (Avena fatua) (AVEFA); test: post-emergent herbicidal test, wild oat; format: in vivo; details: Avena fatua, post-emergence, read-out: AVEFA percent control
From the text: (§1) Seeds of several different weed species were planted in sandy loam soil containing only trace organic matter. Propagules were sown in individuals rows using one species per row across the width of an aluminum flat (19.5×9.5×6 cm). The grass weeds planted were green foxtail (Setaria viridis) ("SETVI"), wild oat (Avena fatua) ("AVEFA"), barnyard grass (Enchinochloa crusgalli) ("ECHCG"). Broadleaf weeds utilized were wild mustard (Brassica kaber), also known as Sinapis arvensis, ("SINAR"), velvetleaf (Abutilon theophrasti) ("ABUTH") and morningglory (Ipomoea spp.) ("IPOSS"). Additionally, yellow nutsedge (Cyperus esculentus) ("CYPES"), nutlets were sown. Seeding depths ranged from 1.0 to 1.5 cm and plant densities ranged from 3 to 25 plants per row depending on individual plant species.
(§2) The flats were placed into a greenhouse and watered overhead by sprinkling. The greenhouse environmental systems provided the plants with natural and artificial (via metal halide lamps) lighting to attain 14 hours of light per day. Day and night temperatures were maintained at 29° and 21° C. respectively. The plants were grown for 10 to 12 days (or to the appropriate growth stage) prior to compound application. Grasses were sprayed at a 3 to 4 leaf stage and broadleaves at a 1 to 2 leaf stage. Yellow nutsedge was 5 to 7 cm tall at application.
(§3) Solutions of the test compounds were prepared by weighing out 18.8 and 74.7 mg for 1 and 4 kg/ha applications respectively, of the test compound into a 60 ml wide-mouth bottle, then dissolving the compound in 14.0 ml of deionized water containing 0.5% v/v Tween 20' (polyoxyethylene sorbitan monolaurate emulsifier) as a surfactant. Additional solvents, not exceeding 2 ml (15% of spray volume), were used if needed to dissolve the compound.
(§4) The plants were sprayed inside an enclosed linear spray table with the nozzle set at 30.5 cm (12 inches) above the foliage.
(§5) Treated plants were then returned to a greenhouse and watered daily without wetting the foliage.
(§6) The degree of weed control was evaluated 17-21 days after application and recorded as percentage of control as compared to the growth of the same species in an untreated control flat of the same. Percent control is the total injury to the plants due to all factors including: inhibited emergence, stunting, malformation, chlorosis and other types of plant injury. The control ratings range from 0 to 100 percent, where 0% represents no effect with growth equal to the untreated control and where 100% represents complete kill.

[3] = system: barnyard grass (Enchinochloa crusgalli) (ECHCG); test: post-emergent herbicidal test, barnyard grass; format: in vivo; details: Echinochloa crus-galli, post-emergence, read-out: ECHCG percent control
From the text: as §1, §2, §3, §4, §5, §6

[4] = system: green foxtail (Setaria viridis) (SETVI); test: post-emergent herbicidal test, green foxtail; format: in vivo; details: Setaria viridis, post-emergence, read-out: SETVI percent control
From the text: as §1, §2, §3, §4, §5, §6

[5] = system: velvetleaf (Abutilon theophrasti) (ABUTH); test: post-emergent herbicidal test, velvetleaf; format: in vivo; details: Abutilon theophrasti, post-emergence, read-out: ABUTH percent control
From the text: as §1, §2, §3, §4, §5, §6

[6] = system: morningglory (Ipomoea spp.) (IPOSS); test: post-emergent herbicidal test, morningglory; format: in vivo; details: Ipomoea, post-emergence, read-out: IPOSS percent control
From the text: as §1, §2, §3, §4, §5, §6

[7] = system: wild mustard (Brassica kaber), also known as Sinapis arvensis (SINAR); test: post-emergent herbicidal test, wild mustard; format: in vivo; details: Brassica, post-emergence, read-out: SINAR percent control
From the text: as §1, §2, §3, §4, §5, §6

[8] = system: yellow nutsedge (Cyperus esculentus) (CYPES); test: post-emergent herbicidal test, yellow nutsedge; format: in vivo; details: Cyperus, post-emergence, read-out: CYPES percent control
From the text: as §1, §2, §3, §4, §5, §6

[9] = Table I, unit inferred, IC50 values in nM, read-out: IC50
[10] = Table II, unit inferred, IC50 values in nM, read-out: IC50
[11] = post-emergent, 1.0 kg/ha (*), 17-21 days after application
[12] = post-emergent, 4.0 kg/ha, 17-21 days after application

IC50 [1, 10] [nM] | Compound | IC50 [1, 9] [nM] | pest or weed control at 4000 g/ha [2, 12] [%] | pest or weed control at 4000 g/ha [3, 12] [%] | pest or weed control at 4000 g/ha [4, 12] [%] | pest or weed control at 4000 g/ha [5, 12] [%] | pest or weed control at 4000 g/ha [6, 12] [%] | pest or weed control at 4000 g/ha [7, 12] [%] | pest or weed control at 4000 g/ha [8, 12] [%] | further results
32 | O=P(O)(O)C(CN1CCCCC1)P(=O)(O)O [Compound 1] | 32 | 100 | 100 | 100 | 70 | 100 | 100 | 20 | 
38 | O=P(O)(O)C(CN1CCCC1)P(=O)(O)O [Compound 4] |  |  |  |  |  |  |  |  | pest or weed control at 1000 g/ha [2, 11]: 60%; pest or weed control at 1000 g/ha [3, 11]: 90%; pest or weed control at 1000 g/ha [4, 11]: 100%; pest or weed control at 1000 g/ha [5, 11]: 20%; pest or weed control at 1000 g/ha [6, 11]: 20%; pest or weed control at 1000 g/ha [7, 11]: 100%; pest or weed control at 1000 g/ha [8, 11]: 5%
425 | O=P(O)(O)C(CNC1CCCCC1)P(=O)(O)O [Compound 5] | 425 | 98 | 98 | 98 | 60 | 60 | 100 | 10 | 
239 | CC(C)(C)NCC(P(=O)(O)O)P(=O)(O)O [Compound 7] | 238 | 85 | 50 | 60 | 5 | 60 | 100 | 15 | 

Continued, compound first:

Compound | IC50 [1, 10] [nM] | IC50 [1, 9] [nM] | pest or weed control at 4000 g/ha [2, 12] [%] | pest or weed control at 4000 g/ha [3, 12] [%] | pest or weed control at 4000 g/ha [4, 12] [%] | pest or weed control at 4000 g/ha [5, 12] [%] | pest or weed control at 4000 g/ha [6, 12] [%] | pest or weed control at 4000 g/ha [7, 12] [%] | pest or weed control at 4000 g/ha [8, 12] [%] | further results
O=P(O)(O)C(CN[C@@H]1C[C@H]1c1ccccc1)P(=O)(O)O (relative stereo) [Compound 63] | 2090 | 2090 |  |  |  |  |  |  |  | pest or weed control at 1000 g/ha [2, 11]: 0%; pest or weed control at 1000 g/ha [3, 11]: 5%; pest or weed control at 1000 g/ha [4, 11]: 10%; pest or weed control at 1000 g/ha [5, 11]: 20%; pest or weed control at 1000 g/ha [6, 11]: 5%; pest or weed control at 1000 g/ha [7, 11]: 10%; pest or weed control at 1000 g/ha [8, 11]: 0%
O=P(O)(O)C(Cc1ccccn1)P(=O)(O)O [2-(2,2-diphosphonic acid)ethylpyridine, reference compound] |  |  |  |  |  |  |  |  |  | IC50 ([1]; prior-art compounds, daffodil chromoplasts, read-out: IC50 value): 52 nM
O=P(O)(O)C(O)(C1CCCN1)P(=O)(O)O (stereo not shown) [Compound 2] | 933 | 933 | 0 | 0 | 60 | 0 | 0 | 90 | 5 | 
CCCNCC(P(=O)(O)O)P(=O)(O)O [Compound 3] | 30 | 30 |  |  |  |  |  |  |  | pest or weed control at 1000 g/ha [2]: 100%; pest or weed control at 1000 g/ha [3]: 100%; pest or weed control at 1000 g/ha [4]: 100%; pest or weed control at 1000 g/ha [5]: 70%; pest or weed control at 1000 g/ha [6]: 95%; pest or weed control at 1000 g/ha [7]: 100%; pest or weed control at 1000 g/ha [8]: 30%
CC(C)NCC(P(=O)(O)O)P(=O)(O)O [Compound 6] | 89 | 89 |  |  |  |  |  |  |  | pest or weed control at 4000 g/ha [2]: 50%; pest or weed control at 4000 g/ha [3]: 60%; pest or weed control at 4000 g/ha [4]: 60%; pest or weed control at 4000 g/ha [5]: 15%; pest or weed control at 4000 g/ha [6]: 70%; pest or weed control at 4000 g/ha [7]: 100%; pest or weed control at 4000 g/ha [8]: 25%
CN(C)CC(P(=O)(O)O)P(=O)(O)O [Compound 8] | 2900 | 2900 |  |  |  |  |  |  |  | pest or weed control at 4000 g/ha [2]: 5%; pest or weed control at 4000 g/ha [3]: 5%; pest or weed control at 4000 g/ha [4]: 50%; pest or weed control at 4000 g/ha [5]: 0%; pest or weed control at 4000 g/ha [6]: 5%; pest or weed control at 4000 g/ha [7]: 85%; pest or weed control at 4000 g/ha [8]: 0%
O=P(O)(O)C(Cn1ccnc1)P(=O)(O)O [Compound 64] |  |  |  |  |  |  |  |  |  | pest or weed control at 1000 g/ha [2, 11]: 100%; pest or weed control at 1000 g/ha [3, 11]: 98%; pest or weed control at 1000 g/ha [4, 11]: 100%; pest or weed control at 1000 g/ha [5, 11]: 75%; pest or weed control at 1000 g/ha [6, 11]: 100%; pest or weed control at 1000 g/ha [7, 11]: 100%; pest or weed control at 1000 g/ha [8, 11]: 30%
